Test results taken from ChEMBL document CHEMBL5236649 (Bioorg Med Chem, 2023).

Legend:
D(3) dopamine receptor = D(3) dopamine receptor (Rattus norvegicus, UniProt P19020); experiment: Displacement of [3H]-spiroperidol from rat D3 receptor expressed in HEK293 cells assessed as inhibition constant by Cheng-Prusoff equation analysis
D(2) dopamine receptor [1] = target: D(2) dopamine receptor (Rattus norvegicus, UniProt P61169); experiment: biochemical
Description: Displacement of [3H]-spiroperidol from rat D2L receptor expressed in HEK293 cells assessed as inhibition constant by Cheng-Prusoff equation analysis

D(2) dopamine receptor [2] = target: D(2) dopamine receptor (Homo sapiens, UniProt P14416); experiment: biochemical

`CCCN(CCc1ccc(CCN(CCC)[C@H]2CCc3c(O)cccc3C2)cc1)[C@H]1CCc2c(O)cccc2C1` gave a Ki (D(3) dopamine receptor) of 3.86 nM and a Ki (D(2) dopamine receptor [1]) of 3.88 nM.
Work on `CCCN(CCc1cc(O)c(CCN(CCC)[C@H]2CCc3nc(N)sc3C2)cc1O)[C@H]1CCc2nc(N)sc2C1` yielded a Ki (D(3) dopamine receptor) of 6.87 nM and an EC50 (D(2) dopamine receptor [2]) of 34.4 nM.
`CCCN(CC(=O)N1CCN(C(=O)CN(CCC)[C@H]2CCc3c(O)cccc3C2)CC1)[C@H]1CCc2c(O)cccc2C1` showed a Ki (D(3) dopamine receptor) of 115 nM.
Compound `CCCN(CCN1CCN(CCN(CCC)[C@H]2CCc3c(O)cccc3C2)CC1)[C@H]1CCc2c(O)cccc2C1` has a Ki (D(3) dopamine receptor) of 3.56 nM and a Ki (D(2) dopamine receptor [1]) of 12 nM.
Compound `CCCN(CCc1ccc(CCN(CCC)[C@H]2CCc3nc(N)sc3C2)cc1)[C@H]1CCc2c(O)cccc2C1` has a Ki (D(3) dopamine receptor) of 2.15 nM and a Ki (D(2) dopamine receptor [1]) of 4.91 nM.
